According to PubChem BioAssay AID2060602 (Molecular Pharmacology Branch, DTP, NCI, 2025):

Test system: 648629-189-R-J1-PDC complex spheroids viability
Experiment: Anticancer human tumor 648629-189-R-J1-PDC patient-derived bladder carcinoma cell line growth inhibition [CLK]
Conditions: for IC50: curve of first compound; for viability, T/C: stronger effect = lower value
Source text: A high-throughput screen of multi-cell type tumor spheroids was designed to identify active combinations of […] and targeted small molecules. Complex spheroids include a stromal component modeled by human endothelial cells (HUVEC) and fibroblasts modeled by human mesenchymal stem cells (MSCs). The concentration ranges selected for each drug and investigational agent were based upon clinically achievable concentrations if the clinical Cmax of the agent was known.
Compounds. The drugs and investigational agents: cirtuvivint (SM08502; NSC835563), CC-671 (NSC850746), vemurafenib (NSC761431), tapotoclax (NSC804041), sotorasib (NSC818433), adagrasib (NSC831453), MRTX-1133 (NSC836407), BAY2416964 (NSC825713), copanlisib (NSC816437), inavolisib (NSC800729), abemaciclib (NSC768073), osimertinib (NSC779217), entinostat (NSC756642), eltanexor (KPT-8602, NSC794443), venetoclax (NSC766270), ceralasertib (NSC777638), bortezomib (NSC756655), olaparib (NSC753686), talazoparib (NSC767125), alisertib (NSC759677), peposertib (NSC802822), gemcitabine (NSC613327), 5-fluorouracil (NSC19893), SN-38 (NSC673596), oxaliplatin (NSC266046), paclitaxel (NSC125973), and doxorubicin (NSC123127), were obtained from the National Cancer Institute (NCI) Developmental Therapeutics Program Chemical Repository. The FDA-approved anticancer drug set is available from the Developmental Therapeutics Program at https://dtp.cancer.gov/organization/dscb/obtaining/available plates.htm. […] The stock solutions were prepared in dimethyl sulfoxide (DMSO, Sigma-Aldrich, St. Louis, MO, cat. D2650), except for the platinum complexes which were prepared in saline (Quality Biological, Gaithersburg, MD, cat. 114-055-101), at 800-fold the tested concentration and stored at -70 degrees C prior to their use. All drugs and investigational agents were tested over a range starting from a high concentration at or near the clinical Cmax and decreasing in half-log increments. If the clinical Cmax for an agent had not been determined, the highest concentration tested was 10 microM.
Cell Culture. All cells were maintained in an incubator at 37 degrees C and 5% CO2 with 95% humidity. The PDC lines were cultured according to standard operating procedures established by the NCI PDMR. Briefly, all PDCs were thawed and cultured in Matrigel-coated flasks prepared with a working solution of 1X Ham's F-12 nutrient mix, without supplementation (Invitrogen, Waltham, MA, cat. 11765054), 100 U/mL penicillin-streptomycin (Invitrogen, cat. 15140122), and 2.5% Matrigel (Corning Inc., Corning, NY, cat. 354248) for the first three passages. The 947758-054-R-J2-PDC line was cultured in 6B/Colon 1A media, which includes advanced DMEM/F-12 (Thermo Fisher Scientific, cat. 12634028), 10 mM HEPES (Thermo Fisher Scientific, cat. 15630080), 1X GlutaMAX supplement (Thermo Fisher Scientific, cat. 35050061), 0.1 mg/mL primocin (InvivoGen, cat. ant-pm-2), 10% defined fetal bovine serum, heat inactivated (HyClone Laboratories Inc., cat. SH30070.03HI), 1.25 mM N-Acetyl-L-cysteine (Sigma-Aldrich, cat. A9165), 10 mM nicotinamide (Sigma-Aldrich, cat. N0636), 1X B-27 supplement (Thermo Fisher Scientific, cat. 17504044), 1X N-2 supplement (Thermo Fisher Scientific, cat. 17502048), and 10 microM Y-27632 dihydrochloride (Tocris Bioscience, cat. 1254). The 876862-298-R-J1-PDC was cultured in 6E media, which includes all 6B/Colon 1A media components plus 50% L-WRN conditioned media (ATCC, cat. CRL-3276), 50 ng/mL recombinant human EGF recombinant protein (hEGF; Thermo Fisher Scientific, cat. PHG0311), 10 ng/mL recombinant human fibroblast growth factor 10 (hGFG-10; PeproTech, cat. 100-26), 1 ng/mL recombinant human fibroblast growth factor 2 (hFGF-2; PeproTech, cat. 100-18B), and 1 µM prostaglandin E2 (PGE2; Tocris, cat. 2296). The 227483-062-R1-J1-PDC line was cultured in Panc media, containing all 6E components except hFGF-2, with the addition of 500 nM SB-431542 (Selleckchem, cat. S1067) and 10 nM gastrin (Tocris, cat. 3006). […]
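Wherever viability, T/C is given: drug exposure lasted seven days before viability readout; 100% = DMSO vehicle control wells.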

NC(=O)C(=Cn1cnc(-c2cc(C(F)(F)F)cc(C(F)(F)F)c2)n1)c1cncnc1 + CN1CCN(c2cc(C(=O)Nc3cc4cc(-c5cnn(C)c5)ccc4cn3)ccn2)CC1
IC50 (second compound 0.0316 µM): 54.4 nM
IC50 (second compound 0.1 µM): 53.3 nM
IC50 (second compound 0.316 µM): < 9.49 nM
IC50 (second compound 1 µM): < 9.49 nM
IC50 (second compound 3.16 µM): < 9.49 nM
IC50 (second compound 10 µM): < 9.49 nM
viability, T/C (second compound 0.0316 µM, first compound 0.00949 µM): 113%
viability, T/C (second compound 0.0316 µM, first compound 0.03 µM): 88.2%
viability, T/C (second compound 0.0316 µM, first compound 0.0949 µM): 14.3%
viability, T/C (second compound 0.0316 µM, first compound 0.3 µM): 2.66%
viability, T/C (second compound 0.0316 µM, first compound 0.949 µM): 1.8%
viability, T/C (second compound 0.0316 µM, first compound 3 µM): 1.61%
viability, T/C (second compound 0.1 µM, first compound 0.00949 µM): 93.7%
viability, T/C (second compound 0.1 µM, first compound 0.03 µM): 87.7%
viability, T/C (second compound 0.1 µM, first compound 0.0949 µM): 12.2%
viability, T/C (second compound 0.1 µM, first compound 0.3 µM): 2.12%
viability, T/C (second compound 0.1 µM, first compound 0.949 µM): 0.68%
viability, T/C (second compound 0.1 µM, first compound 3 µM): 0.92%
viability, T/C (second compound 0.316 µM, first compound 0.00949 µM): 14.6%
viability, T/C (second compound 0.316 µM, first compound 0.03 µM): 11.7%
viability, T/C (second compound 0.316 µM, first compound 0.0949 µM): 3%
viability, T/C (second compound 0.316 µM, first compound 0.3 µM): 0.3%
viability, T/C (second compound 0.316 µM, first compound 0.949 µM): 0.08%
viability, T/C (second compound 0.316 µM, first compound 3 µM): 1.52%
viability, T/C (second compound 1 µM, first compound 0.00949 µM): 0.1%
viability, T/C (second compound 1 µM, first compound 0.03 µM): 0.12%
viability, T/C (second compound 1 µM, first compound 0.0949 µM): 0.12%
viability, T/C (second compound 1 µM, first compound 0.3 µM): 0.07%
viability, T/C (second compound 1 µM, first compound 0.949 µM): 0.06%
viability, T/C (second compound 1 µM, first compound 3 µM): 0.63%
viability, T/C (second compound 3.16 µM, first compound 0.00949 µM): 0.07%
viability, T/C (second compound 3.16 µM, first compound 0.03 µM): 0.1%
viability, T/C (second compound 3.16 µM, first compound 0.0949 µM): 0.12%
viability, T/C (second compound 3.16 µM, first compound 0.3 µM): 0.12%
viability, T/C (second compound 3.16 µM, first compound 0.949 µM): 0.79%
viability, T/C (second compound 3.16 µM, first compound 3 µM): 0.75%
viability, T/C (second compound 10 µM, first compound 0.00949 µM): 0.05%
viability, T/C (second compound 10 µM, first compound 0.03 µM): 0.08%
viability, T/C (second compound 10 µM, first compound 0.0949 µM): 0.17%
viability, T/C (second compound 10 µM, first compound 0.3 µM): 0.2%
viability, T/C (second compound 10 µM, first compound 0.949 µM): 1.48%
viability, T/C (second compound 10 µM, first compound 3 µM): 0.19%
